Each block holds one compound with its values, some of them ahead of it. Where a SMILES comes first, the peptide text is derived from it. Where no end group is shown, it is not given here.
Key:
human α-thrombin = molecular target: T1, human α-thrombin (Homo sapiens, UniProt P00734); experiment: ELISA-type assay on thrombin-coated wells; type: binding; details: read-out: Dissociation constant estimated from ELISA-type assay
T1 construct: human α-thrombin
Procedure: Binding to thrombin was evaluated in an ELISA-type assay. Wells of a 96 well plate were coated with 100 μL of 30 μg/mL human α-thrombin and incubated at 4C overnight. The plate was washed twice with DDI H2O and passivated with 3% BSA in 1×PBS buffer for 1 hour. The plate was shaken out and 50 μL of varying concentrations of analyte (DNA tile synbody, DNA tile with each aptamer with the other not present, and each aptamer alone, respectively) were incubated at RT for 1 hour. DNA tiles were biotin-modified at the 5′ end of one of the distal DNA strands 346 (see FIG. 26(a)). The plate was rinsed 10 times in 1×PBS and 50 μL of 1:1000 dilution of streptavidin-HRP in 0.1% BSA in 1×PBS was pipetted and incubated for 1 hour at RT. The plate was again rinsed and 50 μL of TMB was added and incubated at RT for 15 minutes. 50 μL of 0.5M HCl was added and the plate was read immediately. Results are shown in FIG. 27 for the DNA tile synbody 350; the DNA tile with Apt1 but not Apt2 present 352; the DNA tile with Apt2 but not Apt1 present 356; Apt1 alone 354; and Apt2 alone 358. Dissociation constant values estimated from this assay were about 1 nM for the DNA tile synbody, about 10 nM for Apt1 alone, and more than 1 μM for Apt2 alone.

transferrin [1] = molecular target: T2, transferrin (Homo sapiens, UniProt P02787); experiment: SPR (Biacore T100) steady state affinity of mRNA display clones on immobilized transferrin; type: binding; details: for Kd: steady state affinity model, 32 to 0.0625 μM
T2 sequence (P02787 20-698): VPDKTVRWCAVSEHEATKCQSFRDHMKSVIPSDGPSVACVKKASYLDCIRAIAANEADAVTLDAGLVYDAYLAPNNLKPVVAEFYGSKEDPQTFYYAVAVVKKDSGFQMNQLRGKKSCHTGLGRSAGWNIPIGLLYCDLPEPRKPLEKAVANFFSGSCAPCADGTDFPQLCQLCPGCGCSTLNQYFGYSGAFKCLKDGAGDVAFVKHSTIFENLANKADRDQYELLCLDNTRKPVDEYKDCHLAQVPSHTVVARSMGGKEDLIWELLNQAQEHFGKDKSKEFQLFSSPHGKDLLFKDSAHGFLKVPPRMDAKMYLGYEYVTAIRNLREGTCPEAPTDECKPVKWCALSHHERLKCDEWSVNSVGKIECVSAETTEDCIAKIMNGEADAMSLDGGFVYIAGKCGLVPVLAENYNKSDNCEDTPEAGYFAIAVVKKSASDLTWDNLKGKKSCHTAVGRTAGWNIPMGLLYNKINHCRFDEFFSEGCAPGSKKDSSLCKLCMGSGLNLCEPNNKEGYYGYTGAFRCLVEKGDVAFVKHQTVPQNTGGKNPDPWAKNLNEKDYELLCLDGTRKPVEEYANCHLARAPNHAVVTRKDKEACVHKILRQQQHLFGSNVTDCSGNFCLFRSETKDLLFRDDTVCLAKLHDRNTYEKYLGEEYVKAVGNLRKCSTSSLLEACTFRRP
Procedure: Five clones (see Table 15) were selected, synthesized and purified by HPLC for characterization by surface plasmon resonance (SPR) (T100 instrument from Biacore). Transferrin was immobilized using standard NHS/EDC immobilization chemistry according to the methods described in Frostell-Karlsson, A., Remaeus, A., Andersson, K., Borg, P., Hamalainen, M., and Karlsson, R. (2000) J. Med. Chem. 43, resulting in 9758 RU of immobilized protein. HPLC purified peptides were injected over the surface and sensograms were recorded at multiple concentrations (32, 16, 8, 4, 2, 1, 0.5, 0.25, 0.125. and 0.0625 μM). Affinity plots were generated for each peptide and fit using a steady state affinity model.

transferrin [2] = molecular target: T2, transferrin; experiment: SPR characterization of TRF26 lead and point-mutant peptides against transferrin; type: binding
Text: In this example, a small library of ˜300 variant peptides was synthesized in 96-well format. […] The lead peptide (TRF26, see Table 6) was selected as a moderate-affinity binder of the target protein transferrin. The library of variant peptides contained all possible point mutations of the lead peptide using the following set of amino acids {M,A,V,P,L,I,G,W,Y,F,S,T,N,Q,K,R,H,D,E}.
Relative affinities/specificities of the lead peptide and point-mutants were characterized using SPR as follows:
Peptide sample preparation. Lyophilized peptides were individually diluted in 96-well plates to approximately equal concentration (1 mg/ml) in 1×PBST buffer pH 7.4. Peptide sample purity was determined by MALDI-MS analysis of the diluted peptide samples.
SPR gold substrate preparation. Gold substrates used for SPR analysis were first modified with a monolayer of cysteamine by immersing the substrate in a 10 mM cysteamine/EtOH solution for 1 hour, thereby exposing a layer of primary amines just above the gold surface. After addition of the monolayer, the gold substrates were rinsed extensively with EtOH then further modified by immersing in a solution of 2 mM Sulfo-SMCC/PBS pH 7.4 for 1 hour, thereby exposing a surface-bound maleimide which can be used to covalently couple peptides to the gold substrate via the C-terminal cysteine.
Peptide spotting on gold substrate. Diluted peptide samples were spotted on the modified gold substrate using a commercial robotic spotter in an array format. The array contained ˜440 peptide spots (including replicates and blank reference spots), each spot having ˜200 um diameter. Spotted substrates were kept in a humidity chamber overnight to ensure complete reaction between the surface exposed maleimide and the C-terminal cysteine in the peptides. After ˜12-hours, the substrates were washed with PBST buffer to remove excess peptide not bound to the gold substrate. Finally, unreacted maleimide groups were quenched using a 2 mM β-mercaptoethanol/PBST solution thereby presenting a hydrophilic surface in regions not containing peptide.
Determination of target affinity using SPR. Gold substrates containing arrays of peptide variants and the lead peptide were loaded into a FlexChip SPR (Biacore) instrument. To ensure binding specificity, three injections of 0.2% BSA sample were flowed across the array using the FlexChip fluidics. The array was then washed with a continuous 1 mL/min flow of PBST buffer until the sensorgram reached a stable baseline. After reaching a baseline, the array was washed 2 additional minutes using PBST, then a 10 μM Transferrin/PBST sample was injected and continuously recycled over the array surface for 8 minutes. After the recycle the array was washed […] with continuous 1 mL/min PBST flow for 10 minutes. Sensorgrams were continuously recorded during the 2 minute prewash (to ensure baseline stability), 8 minute Transferrin sample recycle and post sample recycle wash.
Quantification of relative target affinities. Sensorgram values were taken from the stability region, that is the region ˜10 seconds into the post sample recycle wash. Sensorgram values at this point should allow identification of peptides that have both high levels of target binding and off-rates slower than the lead peptide. […] Data processing included identification of the mutated position at a particular SPR array spot as well as signal normalization relative to the lead peptide (lead peptide=1), enhanced binders have positive values and reduced binders have negative values.
Two TRF26 point-mutants (P6Y, H12F) were selected for further affinity characterization. The P6Y and H12F point-mutants have dissociation constants of 8.6±1.6 μM and 9.8±1.6 μM respectively. […] A TRF26 double mutant sequence containing the P6Y+H12F mutations was synthesized and characterized.

TNF-α = TNF-α (Homo sapiens, UniProt P01375); experiment: SPR (Biacore A100) of TNF1 lead and mutant peptides on captured TNF-α; type: binding; details: for koff: kinetic fits of sensorgrams, read-out: off-rate koff
TNF-α, sequence (P01375 77-233 limits assumed, species assumed): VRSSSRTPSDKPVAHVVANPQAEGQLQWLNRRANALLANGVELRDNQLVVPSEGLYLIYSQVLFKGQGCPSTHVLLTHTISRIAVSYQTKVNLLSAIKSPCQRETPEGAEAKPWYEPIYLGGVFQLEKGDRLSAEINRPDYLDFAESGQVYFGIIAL
Text: Scanning Mutagenesis of the TNF1 Lead Peptide. After lead identification, the next step in the AMPLI algorithm is characterization of point mutations in the lead heteropolymer. Using short peptides makes it chemically feasible to synthesize a significant fraction of the point-mutant space, which can then be screened for enhanced point mutations. For example, all possible point mutations in the 17 randomized positions using all 20 natural amino acids could be synthesized and screened within a single 384-well plate (323 total point-mutants). However, libraries containing all 20 natural amino acids are not required for affinity optimization of protein-protein interactions. A library of TNF1 point-mutants containing all substitutions of the amino acid set {Y, A, D, S, K, N, V, W} in each of the 17 randomized positions (132 unique point-mutants) was synthesized. Tyrosine (Y), alanine (A), aspartic acid (D) and serine (S) were selected because of their effectiveness in producing high affinity interactions when substituted into the complementary-determining regions (CDRs) of synthetic antibodies (Felouse, Proceedings of the National Academy of Sciences 101(34):12467, 2004), lysine (K) was selected to balance the charge in the substitution set, asparagine (N), valine (V) and tryptophan (W) were selected to span the hydropathicity range (Kyte J & Doolittle R F, Journal of Molecular Biology 157(1):105-132, 1982). […] This concentration was used to increase the high-end dynamic range for quantifying enhancing point mutations at the expense of low-end dynamic range for quantifying detrimental point mutations.
Point-mutant libraries were prepared in 96-well stock plates From the stock plate, peptides were diluted to 50 μM concentration in Biacore HBS-EP buffer (GE Healthcare, Piscataway, N.J.) containing 1 mg/ml carboxymethyl-dextran (Sigma-Aldrich, St. Louis, Mo.) to reduce non-specific binding to the CM-5 SPR chip surface. […] Spot 3 contained only immobilized neutravidin and served as a reference spot.
Using the prepared 96-well plates and Biacore A100 SPR instrument, four peptides were flowed separately, in parallel, through the four flow cells over all 4 TNF-α spots and the neutravidin reference spot, with a 60 second association phase and 300 second dissociation phase. SPR sensorgrams were recorded for each peptide response with all 4 TNF-α spots and the neutravidin reference spot across the four flow cells on the SPR chip. […]
Purified point-mutant affinities were measured on the Biacore A100 using SPR equilibrium binding response across a series of peptide concentrations on an SPR chip with TNF-α captured as described above. […]

transferrin [3] = molecular target: T2, transferrin; experiment: SPR analysis of peptide pairs for binding to distinct sites on immobilized transferrin
Text: The transferrin target was immobilized on a Biacore T100 SPR chip, and candidate polypeptides were applied in 1:1 mixtures in pairs and response data obtained, in accordance with the methods described in Example 4 above. As illustrated in FIGS. 12A-D, upon flowing candidate polypeptides over the immobilized target, ideally one polypeptide applied alone would bind to a first binding site on the target and produce a first characteristic SPR response level (FIG. 12A), the other polypeptide would bind to a second, distinct binding site on the target, producing a second characteristic response level (FIG. 12B), and a mixture of the two polypeptides together (at the same concentrations as before) would produce a response level approximating the sum of the response levels produced by each polypeptide alone, as the polypeptides bind to distinct binding sites (FIG. 12C).

[4] = observed, read-out: dissociation constant
[5] = Table 13A, lead and point-mutants

Compound: 5′-AGTCCGTGGTAGGGCAGGTTGGGGTGACT-3 [Apt1 alone]
Kd (human α-thrombin): ~10 nM

Compound: AHKVVYQRQIRFAYNRYGSC [P6Y + H12F]
Observed Binding ΔG (transferrin [2]; Table 13D): -8.68 ± 0.15 kcal/mol
Observed Kd Fold-Change Relative to Lead (transferrin [2]; Table 13D): 190 ± 57
Predicted Binding ΔG (transferrin [2]; Table 13D, energetic additivity): -8.22 ± 0.18 kcal/mol
Kd (transferrin [2]; [4]): 0.5 ± 0.1 µM

Compound: FERSYLKMPWKFLQSRQGSC [TNF1-opt]
koff (TNF-α): 0.2 ± 0.02 s⁻¹

Compound: FERDPLMMPWSFLQSRQGSC [TNF1]
Binding ΔG (TNF-α; [5]): -5.21 ± 0.07 kcal/mol
Kd (TNF-α; [5]): 160 ± 19 µM
koff (TNF-α): 1.6 ± 0.5 s⁻¹

Compound: 5′-GGTTGGTGTGGTTGG-3′ [Apt2 alone]
Kd (human α-thrombin): > 1000 nM

Compound: AHKVVPQRQIRFAYNRYGSC [H12F]
Binding ΔG (transferrin [2]; Table 13C): -6.85 ± 0.10 kcal/mol
Component Binding ΔG Contribution (transferrin [2]; Table 13C): -1.29 ± 0.14 kcal/mol
Kd Fold-Change Relative to Lead (transferrin [2]; Table 13C): 8.8 ± 2.0
Kd (transferrin [2]; [4]): 9.8 ± 1.6 µM

Compound: AHKVVYQRQIRHAYNRYGSC [P6Y]
Binding ΔG (transferrin [2]; Table 13C): -6.93 ± 0.11 kcal/mol
Component Binding ΔG Contribution (transferrin [2]; Table 13C): -1.37 ± 0.15 kcal/mol
Kd Fold-Change Relative to Lead (transferrin [2]; Table 13C): 10 ± 2.5
Kd (transferrin [2]; [4]): 8.6 ± 1.6 µM

Other lines, results leading:

Kd (transferrin [1]): > 300 µM
Compound: C[C@H](N)C(=O)N[C@H](C(=O)N[C@@H](CCCNC(=N)N)C(=O)N[C@@H](Cc1c[nH]c2ccccc12)C(=O)N[C@@H](CS)C(=O)N1CCC[C@H]1C(=O)N[C@@H](CO)C(=O)N[C@@H](C)C(=O)N[C@@H](CCCNC(=N)N)C(=O)N1CCC[C@H]1C(=O)N[C@@H](C)C(=O)N[C@H](C(=O)N1CCC[C@H]1C(=O)N[C@H](C(=O)N[C@H](C(=O)N[C@@H](C)C(=O)N[C@H](C(=O)NCC(=O)N[C@@H](CO)C(=O)N[C@@H](CS)C(=O)O)[C@@H](C)O)[C@@H](C)O)[C@@H](C)O)[C@@H](C)O)[C@@H](C)O [TBPM021] (H-ATRWCPSARPATPTTATGSC-OH)

affinity improvement in comparison to the original peptide TRF26 (transferrin [1]): more than 10 fold
Compound: AHKVVPQRQMRHAYSRYGSC [TBPM023]

Kd (transferrin [1]): > 300 µM
Compound: CC(C)C[C@H](NC(=O)[C@H](CCCNC(=N)N)NC(=O)[C@@H]1CCCN1C(=O)[C@@H]1CCCN1C(=O)[C@H](CC(=O)O)NC(=O)[C@@H]1CCCN1C(=O)[C@H](C)NC(=O)[C@@H]1CCCN1C(=O)[C@H](CS)NC(=O)[C@H](Cc1c[nH]c2ccccc12)NC(=O)CNC(=O)[C@@H](NC(=O)[C@@H]1CCCN1)[C@@H](C)O)C(=O)N[C@@H](Cc1c[nH]cn1)C(=O)N1CCC[C@H]1C(=O)N[C@@H](CC(C)C)C(=O)N[C@@H](Cc1c[nH]cn1)C(=O)NCC(=O)N[C@@H](CO)C(=O)N[C@@H](CS)C(=O)O [TBPM003] (H-PTGWCPAPDPPRLHPLHGSC-OH)

Binding ΔG (transferrin [2]; Table 13C): -5.56 ± 0.10 kcal/mol
Kd (transferrin [2]; Table 13C, read-out: Kd): 85 ± 14 µM
binding sites on transferrin (pairs applied in 1:1 mixtures) (transferrin [3]): bind distinct sites on transferrin
Compound: AHKVVPQRQIRHAYNRYGSC [TRF26]
